Experimental data taken from patent US20230212517A1, “METHODS FOR GENERATING HEMATOPOIETIC STEM CELLS” (The Brigham and Women's Hospital, Inc., priority 2018, published 2023).
Entries after “also recorded” stand apart in the source; their conditions may differ.

Tests used:
[1] = test system: E11.5 AGM cells; test: Hematopoietic colony formation unit (CFU) and FACS assays on E11.5 AGM cells; type: cell-based, mouse; details: for effect on cyclic strain-induced endothelial-to-HSC transition / hematopoietic progenitor formation: in the presence of cyclic strain (stretch)
Procedure: Pulsating blood vessels like conditions were stimulated in vitro using FLEXCELL FX-4000 cell stretching bioreactor machine. To analyze roles of pharmacological targets in regulating the endothelial-to-HSC transition, mouse embryo-derived AGM or whole mouse embryo were exposed ex vivo with biomechanical stretching, chemicals, or drugs. Next, hematopoietic colony formation assays were performed by incubating mouse AGM-derived cells in StemCell M3434 media for seven days. Serial transplantation of AGM-derived HSCs in lethally irradiated SJL mice were performed. The stem cell frequency upon biomechanical stretching was analyzed using a limiting dilution assay. To characterize properties of AGM-HSC-derived blood cells in primary transplants, percentage chimerism and reconstitution was measured using FACS, globin transcripts were analyzed using quantitative reverse transcriptase-PCR, myeloperoxidase amount was measured using PICOKINE ELISA kit, TCR-β rearrangement was analyzed using PCR for TCR-β locus, pre-immune IG detection was analyzed using Thermo-Fisher Mouse Ig Isotyping kit, and delayed-type hypersensitivity was analyzed by injecting sheep RBC (Rockland Immunochemicals) in the footpad of pre-sensitized mice.
E11.5 AGM were harvested from C57BL6/J Cd45.2 mouse embryos, and a single cell suspension of a three-embryo equivalent of cells was seeded on each well of a BioFlex six-well culture plate (FlexCell). We cultured cells overnight with the application of cyclic strain (Flexcell® FX4000™ Tension System) and/or treatment with chemical modulators (25-50 μM Yoda1, 1 μM Nanaomycin, 100 μM GdCl3, 1 uM GsMTx4, 5-20 μM 4αPDD, 10 uM GSK205). Next, harvested cells were used to perform transplant, fluorescence-activated cell sorting (FACS) analysis, and colony-forming unit (CFU) assays.
E11.5 mouse embryos were harvested from the uterus of the time-mated pregnant female, into sterile glass vials containing FBS, 1 mM glucose, 1% Penicillin-Streptomycin, and/or the selected chemical modulator (25-50 μM Yoda1, 1 μM Nanaomycin, 5-20 μM 4αPDD, or 10 uM GSK205). We placed glass vials in the ex vivo incubator (BTC Engineering, Cambridge, UK) consisting of a roller apparatus (rotating ˜30 rpm), constant gas supply (21% O2, 5% CO2, balance N2) and constant temperature at 37° C. After 24 hours, AGM were harvested to analyze the formation of hematopoietic cells by FACS and CFU assays.
For CFU assays, cells from AGM explant or ex vivo were plated in METHOCULT GF M3434 media (StemCell Technologies). Seven days after seeding, we analyzed their capacity to make granulocyte, erythroid, macrophage, megakaryocyte (GEMM), granulocyte macrophage (GM), granulocyte (G), macrophage (M), and erythroid (E) colonies.
AGM cells from explants and ex vivo were stained with Sca1-Pacific-Blue (E13-161.7, Biolegend) and Flk1-APC-Cy7 (Avas 12α1, BD). Blood from transplanted mice was stained with the following antibody cocktail: Cd45.2-Pacific-Blue (104, Biolegend), Cd45.1-FITC (A20, Biolegend), Cd3-PE (145-2C11, Biolegend), Cd8-PE (53-6.7, Biolegend), Mac1-APC (M1/70, Biolegend), Gr1-APC (108412, Biolegend), Cd19-APC-CY7 (6D5, Biolegend), B220-APC-CY7 (RA3-6B2, Biolegend).

[2] = test system: zebrafish embryos; test: HSPC marker expression in chemically treated embryos (whole mount in situ hybridization); type: in vivo
Procedure: (§1) Zebrafish embryos were treated with the following chemical modulators in E3 fish media: 100 uM L-NAME (Fisher Scientific), 50 uM Digitoxigenin (Sigma), 25-50 uM Yoda1 (Cayman Chemical), 1 uM Nanaomycin (Nana; Fisher Scientific), 100 uM Gadolinium chloride (GdCl3; Sigma), 5-10 uM 4α-phorbol 12, 13-didecanaote (4Apdd; Sigma), or GSK205 (10 uM).
Whole mount in situ hybridizations was performed as previously described.

[3] = test system: cd41:eGFP+ HSCs emerging from flk1:mCherry+ endothelial cells; test: Time-lapse confocal imaging of cd41:eGFP+ HSCs emerging from flk1:mCherry+ endothelial cells in transgenic embryos; type: in vivo, zebrafish
Procedure: Mice were purchased Cd45.2 (C57BL6/J) and Cd45.1 (SJL) from The Jackson Laboratory and zebrafish morpholinos from GeneTools. Microangiography was performed by injecting fluorescent-labeled dextran dye in the atrium of zebrafish heart and its passage was recorded using live imaging. Immunostaining of zebrafish heart and mouse AGM were analyzed using an inverted fluorescent microscope. Cardiac tamponade, heart rate, and pulse frequency were analyzed in zebrafish embryos using bright field imaging or time-lapse confocal microscopy. The movement of red blood cells in blood vessels was analyzed as well as the endothelial-to-HSC transition in zebrafish transgenic embryos using time-lapse confocal imaging.
as §1
cd41: eGFP were crossed with flk1:mCherry zebrafish and flk1:mCherry with lcr:eGFP zebrafish and injected morpholino in their transgenic embryos. Transgenic embryos were mounted in low-melting-point agarose and a spinning-disk confocal microscope was used to perform time-lapse confocal imaging of cd41:eGFP^+ HSCs emerging from flk1^+ endothelium from 30 to 42 hpf. The relative movement of lcr:eGFP^+ red blood cells was analyzed in the context of flk1:mCherry^+ endothelium. We performed image analysis using IMARIS (Bitplane) software.

Question: Which results are given for `[Cl][Gd]([Cl])[Cl]` [GdCl3, Gadolinium chloride]?
Answer: effect on cyclic strain-induced endothelial-to-HSC transition / hematopoietic progenitor formation [1]: attenuated; HSPC marker expression / HSPC formation ([2]; control embryos): attenuated HSPC expression in zebrafish embryos to the level of sih-MO embryos

Question: Which results are given for `COC(=O)[C@@H](N)CCCNC(=N)N[N+](=O)[O-]` [L-NAME]?
Answer: HSPC marker expression / HSPC formation ([2]; cdh5-MO embryos): produce HSCs; also recorded: does not impact HSPC formation; HSPC marker expression / HSPC formation ([2]; control embryos): attenuates HSPC formation

Question: `CC1OC(CC(=O)O)CC2=C1C(=O)c1c(O)cccc1C2=O` (stereo not drawn) [Nanaomycin] was tested. Which “effect on Piezo1 activation (Yoda1)-mediated increase in HSC formation” value ([3]; embryos concurrently treated with or without Yoda1, also whole mount in situ hybridization) did it give?
Answer: attenuated the Piezo1 activation-mediated increase in HSC formation

Question: What about the “specificity for Dnmt3b over Dnmt3a” value ([3]; transgenic embryos 26-42 hpf) of the same molecule?
Answer: specificity of Nanaomycin for Dnmt3b over Dnmt3a

Question: What about the “phenotype of hematopoietic cells after treatment” value ([1]; E11.5 AGM cells) of the same molecule?
Answer: reverts hematopoietic cells into phenotypic endothelial cells

Question: And the “effect on Piezo1 activation (Yoda1)-induced endothelial-to-HSC transition” value ([1]; in the presence of Yoda1)?
Answer: attenuates the endothelial-to-HSC transition

Question: What about the “effect on cyclic strain-induced endothelial-to-HSC transition / hematopoietic progenitor formation” value [1] of the same molecule?
Answer: attenuates the endothelial-to-HSC transition

Question: And the “HSPC marker expression / HSPC formation” value ([2]; cdh5-MO embryos)?
Answer: attenuated HSPC marker expression

Question: And the “HSPC marker expression / HSPC formation” value ([2]; control embryos)?
Answer: attenuated HSPC marker expression

Question: For GsMtX4, which “effect on cyclic strain-induced endothelial-to-HSC transition / hematopoietic progenitor formation” value [1] is on record?
Answer: attenuates the inductive impact of cyclic strain on the endothelial-to-HSC transition
